What was measured:
[1] = Liquid; for mass density / speed of sound: 298.15 K, 101.33 kPa
[2] = refractive index (Na D-line) (dimensionless); conditions: 298.15 K; 101.33 kPa; Liquid; Standard Abbe refractometry
[3] = xn = mol fraction of the nth substance listed; conditions: 298.15 K, 101 kPa, Liquid
[4] = refractive index (Na D-line) (dimensionless); xn = mol fraction of the nth substance listed; conditions: 298.15 K, 101 kPa, Liquid, Standard Abbe refractometry

CCO [ethanol]
Conditions	mass density [kg/m3]	refractive index	speed of sound [m/s]
[1]	785.36	–	1143.1
[2]	–	1.35916	–

Conditions	vapor or sublimation pressure [kPa]
[1], 351.5 K	101.3

CC(C)CO [2-methyl-1-propanol] + CCOC(C)=O
Conditions	refractive index, [4]	speed of sound, [3] [m/s]
x2 = 0.052	1.39253	1186.1
x2 = 0.104	1.39136	1184.4
x2 = 0.155	1.39012	1182.9
x2 = 0.206	1.3889	1181.5
x2 = 0.258	1.38753	1179.3
x2 = 0.308	1.38611	1177.5
x2 = 0.359	1.3847	1175.6
x2 = 0.41	1.3833	1174.2
x2 = 0.46	1.38169	1171.3
x2 = 0.51	1.3803	1169
x2 = 0.56	1.37842	1165.2
x2 = 0.609	1.37674	1163
x2 = 0.659	1.37505	1160.4
x2 = 0.708	1.37301	1158.2
x2 = 0.757	1.37111	1155.3
x2 = 0.806	1.36884	1152.8
x2 = 0.855	1.36675	1150.1
x2 = 0.904	1.36431	1147.4
x2 = 0.952	1.36189	1144.7

CCCCCO [pentan-1-ol] + CCOC(C)=O
Conditions	mass density, [3] [kg/m3]	refractive index, [4]	speed of sound, [3] [m/s]
x2 = 0.05	814.16	1.40579	1263.5
x2 = 0.101	817.63	1.40382	1253.8
x2 = 0.15	821.07	1.40193	1245
x2 = 0.2	824.6	1.40012	1236.5
x2 = 0.251	828.3	1.39803	1227.5
x2 = 0.3	831.9	1.39629	1219.9
x2 = 0.35	835.73	1.39423	1211.9
x2 = 0.4	839.69	1.3925	1204.5
x2 = 0.45	843.69	1.39052	1198.2
x2 = 0.5	847.81	1.38863	1190.5
x2 = 0.549	851.89	1.38676	1184.1
x2 = 0.599	856.06	1.38493	1178.8
x2 = 0.65	860.53	1.38303	1172.1
x2 = 0.7	865.01	1.38107	1166.8
x2 = 0.749	869.4	1.37919	1161.7
x2 = 0.8	874.19	1.37733	1157.1
x2 = 0.85	879	1.37548	1152.2
x2 = 0.898	883.69	1.3736	1148
x2 = 0.947	888.68	1.37188	1144.1

CCOC(C)=O [ethyl acetate]
Conditions	mass density [kg/m3]	refractive index	speed of sound [m/s]
[1]	894.24	–	1137.7
[2]	–	1.3698	–

Conditions	vapor or sublimation pressure [kPa]
[1], 350.25 K	101.3

CC(C)CO [2-methyl-1-propanol]
Conditions	mass density [kg/m3]	refractive index	speed of sound [m/s]
[1]	797.84	–	1185.6
[2]	–	1.3937	–

Conditions	vapor or sublimation pressure [kPa]
[1], 381 K	101.3

CCCCCO [pentan-1-ol]
Conditions	mass density [kg/m3]	refractive index	speed of sound [m/s]
[1]	810.96	–	1273.3
[2]	–	1.4077	–

Conditions	vapor or sublimation pressure [kPa]
[1], 410.59 K	101.3
